Test results taken from PMC7948405, “Small-molecule control of neurotransmitter sulfonation” (The Journal of Biological Chemistry, 2020).

How the values were obtained:
Assay in all cases: Initial-rate inhibition of SULT-catalyzed 1-HP sulfonation
Format in all cases: biochemical
[1] = biological target: T1, SULT1A3 (Homo sapiens, UniProt P0DMM9); settings: parentheses 1 SD; for Ki: in vitro initial rate, 1-HP 5.0 μM, PAPS 0.50 mM, pH 7.5, 25 °C; for % Inhibition at saturation: in vitro, saturating inhibitor
T1 construct: E. coli–optimized SULT coding regions were inserted into a pGEX-6P expression vector; N-His/GST/MBP triple tag (PreScission-cleavable) (N, cleaved yes); made in house; host or cells: E. coli BL21(DE3)
Procedure: (§1) Figure 3 Affinity, specificity, and binding sites of CMP12 and CMP13. A and B, inhibition studies. Initial rates of SULT-catalyzed 1-HP sulfonation are plotted as a function of inhibitor concentration. Rates are normalized to the rate observed in the absence of the inhibitor. Inhibition of the major SULT isoforms found in the brain and liver were tested. SULT activity was monitored via the sulfonation-dependent change in 1-HP fluorescence (λex = 325 nm, λem = 375 nm ([15], [28])). Reaction conditions were as follows: SULT (20 nM, active sites), PAPS (0.50 mM, 17 × Km), 1-HP (5.0 μM, 61 × Km), KPO4 (50 mM), pH 7.5, 25(±2) °C. Less than 5% of the concentration-limiting substrate was converted to the product at reaction endpoints. Each data point is the average of three independent determinations. The lines passing through the data are least-squares fits to a noncompetitive partial-inhibition model (see Experiment and Initial rate). C, CMP8 competes with CMP12 and CMP13. Initial rates at saturating CMP12 or CMP13 are plotted as a function of CMP8 concentration. Rates are normalized to the rate observed in the absence of the inhibitor. […] Lines passing through the data are the predictions of a noncompetitive partial-inhibition model in which inhibitors compete for the same site (see Experiment and Binding competition). SULT, sulfotransferase; PAP, 3′-phosphoadenosine-5′-phosphate; SULT1A3, sulfotransferase 1A3; PAPS, 3’-phosphoadenosine 5’-phosphosulfate; 1-HP, 1-hydroxypyrene.
(§2) Initial-rate inhibition parameters were obtained from classical initial-rate studies ([16], [28], [43]). Reactions were initiated by addition of PAPS (0.50 mM, 17 × Km) to a solution containing SULT1A3 (20 nM, active sites), inhibitor (0.2–20 × Ki), 1-HP (5.0 μM, 60 × Km), and KPO4 (50 mM), pH 7.5, 25(±2) °C. Reaction progress was monitored via the fluorescence change associated with 1-HP sulfonation (λex = 325 nm, λem = […] ([15], [28])). Less than 5% of the 1-HP was converted to the product at reaction endpoints. Ki and kcat inh (i.e., turnover at saturating inhibitor and substrate) were obtained by fitting to the following quadratic equation for noncompetitive, partial inhibition at [S] >> Km ([44]):(7) v/Vmax=([Etot]+[ESI](α-1))/[Etot] where(8) α=kcat inh/kcat and(9) [ESI]=[([E]tot+[I]tot+Ki)−[([E]tot+[I]tot+Ki)^2−4·[I]tot·[E]tot]^1/2]/2

[2] = biological target: T2, SULT1A1 (Homo sapiens, UniProt P50225)
T2 construct: E. coli–optimized SULT coding regions were inserted into a pGEX-6P expression vector; N-His/GST/MBP triple tag (PreScission-cleavable) (N, cleaved yes); made in house; host or cells: E. coli BL21(DE3)
Procedure: (§3) The affinity and specificity of CMP12 and CMP13 were evaluated in initial-rate studies using the four major SULT isoforms expressed in the brain and liver ([27])—SULT1A1, SULT1E1, SULT1A3, and SULT2A1. Initial-rate vs [inhibitor] plots are presented in Fig. 3, A–B. The data are normalized to the rates in the absence of inhibitor. Solid lines passing through the data are the predictions of least-squares fitting to a single-binding-site, partial-inhibition model. The best-fit parameters are found in Table 1. […] Both compounds are partial inhibitors, and their percent inhibition values at saturation (83 and 98%, respectively) agree well with the predicted values.
as §1, §2

[3] = biological target: T3, SULT1E1 (Homo sapiens, UniProt P49888); settings: concentrations as high as 10 μM
T3 construct: E. coli–optimized SULT coding regions were inserted into a pGEX-6P expression vector; N-His/GST/MBP triple tag (PreScission-cleavable) (N, cleaved yes); made in house; host or cells: E. coli BL21(DE3)
T3 sequence (P49888 1-294): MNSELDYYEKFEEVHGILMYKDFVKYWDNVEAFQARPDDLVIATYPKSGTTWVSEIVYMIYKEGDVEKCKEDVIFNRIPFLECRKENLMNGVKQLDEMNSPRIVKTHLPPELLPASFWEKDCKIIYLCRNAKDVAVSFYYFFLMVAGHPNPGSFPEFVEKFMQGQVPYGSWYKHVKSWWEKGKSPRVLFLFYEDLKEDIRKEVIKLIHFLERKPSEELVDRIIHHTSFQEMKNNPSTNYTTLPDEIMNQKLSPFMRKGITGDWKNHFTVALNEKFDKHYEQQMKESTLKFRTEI
Procedure: as §3, §1, §2

[4] = biological target: T4, SULT2A1 (Homo sapiens, UniProt Q06520); settings: concentrations as high as 10 μM
T4 construct: E. coli–optimized SULT coding regions were inserted into a pGEX-6P expression vector; N-His/GST/MBP triple tag (PreScission-cleavable) (N, cleaved yes); made in house; host or cells: E. coli BL21(DE3)
T4 sequence (Q06520 1-285): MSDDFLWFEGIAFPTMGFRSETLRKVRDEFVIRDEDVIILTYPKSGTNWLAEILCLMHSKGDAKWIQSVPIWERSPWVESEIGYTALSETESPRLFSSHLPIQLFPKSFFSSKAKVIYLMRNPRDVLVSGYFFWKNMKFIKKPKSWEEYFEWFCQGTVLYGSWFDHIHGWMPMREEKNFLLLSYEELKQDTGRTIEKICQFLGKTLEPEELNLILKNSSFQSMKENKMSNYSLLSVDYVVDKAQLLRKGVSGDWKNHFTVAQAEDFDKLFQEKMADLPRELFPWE
Procedure: as §3, §1, §2

T1 sequence (P0DMM9 whole entry): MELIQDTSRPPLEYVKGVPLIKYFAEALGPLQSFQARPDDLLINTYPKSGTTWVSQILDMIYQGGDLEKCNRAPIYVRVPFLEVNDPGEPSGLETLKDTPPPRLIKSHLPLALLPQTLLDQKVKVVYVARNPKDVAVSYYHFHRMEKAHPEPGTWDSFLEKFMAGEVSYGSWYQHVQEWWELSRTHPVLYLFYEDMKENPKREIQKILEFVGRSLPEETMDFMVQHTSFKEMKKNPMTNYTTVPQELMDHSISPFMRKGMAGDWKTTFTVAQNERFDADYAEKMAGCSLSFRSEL
T2 sequence (P50225 whole entry): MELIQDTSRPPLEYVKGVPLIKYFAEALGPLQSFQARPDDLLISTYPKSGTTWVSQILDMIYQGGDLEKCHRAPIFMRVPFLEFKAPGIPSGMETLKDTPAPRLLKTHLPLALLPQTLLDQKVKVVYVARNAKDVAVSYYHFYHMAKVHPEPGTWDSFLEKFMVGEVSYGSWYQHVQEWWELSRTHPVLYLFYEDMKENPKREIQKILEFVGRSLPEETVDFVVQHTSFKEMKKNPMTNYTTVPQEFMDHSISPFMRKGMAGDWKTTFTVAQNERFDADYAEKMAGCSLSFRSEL

Row | Compound | Ki [1] [nM] | % Inhibition at saturation [1] | inhibition of SULT1A1 ([2]; concentrations as high as 10 μM) | inhibition of SULT1E1 [3] | inhibition of SULT2A1 [4] | Ki ([2]; SULT1A1, initial rate) [nM]
1 | CC(C)Cc1ccc2cc(CCC(N)=O)ccc2n1 [CMP12] | 70 | 83 (4) % | no detectable inhibition | no detectable inhibition | no detectable inhibition | 
2 | CC(C)Cc1ccc2cc(/C=C/C(N)=O)cnc2n1 [CMP13] | 11 | 98 (2) % |  | behaved similarly | behaved similarly | 3100 ± 200
